Assay results as given in EP0042348A1, “Olivacine derivatives and their therapeutical use” (priority 1980, dated 1981).
Read-outs that look alike come from different tables or passages of the source.

Columns and labels:
[1] = Toxicity in mice after a single i.p. injection (maximal never-lethal dose); type: in vivo, souris; conditions: for DL0 (i.p.): as printed in the compound cell of the dose-response table; for DL0 (Dose maximale jamais mortelle): mice; for toxicités générales (facteur d'augmentation): change on hydroxylation at position 10 of the named parent; for augmentation de la toxicité (facteur): fold increase on quaternisation
Excerpt: (§1) En pratique, on a utilisé des souris ayant reçu par voie intrapéritonéale un inoculum de cellules de leucémie L 1210 et ayant été, pour la moitié d'entre elles, soumises 24 heures après ladite inoculation tumorale à une injection intrapéritonéale d'une dose unique de l'un des composés à tester; l'autre moitié des souris a reçu une injection d'un volume identique d'un solvant inactif et servait de série témoin. On a réparti les souris au hasard dans chaque série expérimentale. Une première expérimentation de routine a permis de déterminer la mortalité par toxicité et de fixer ainsi les doses infra-létales.
On a ainsi pu déterminer la mortalité par toxicité sous l'effet d'une injection unique de l'un des composés à différentes doses (doses infra-létales DL 50 et DL 100) et évaluer le taux de survie du groupe d'animaux auxquels on n'avait injecté qu'une dose infra-létale d'un composé selon l'invention.
Pour l'évaluation de l'activité thérapeutique des composés selon l'invention, on a exprimé les doses desdits composés en les rapportant à la dose infra-létale 30 jours, que l'on a posée égale à 1. Cette dose infra-létale s'est en effet avérée plus facile à déterminer pour les composés de l'invention que la DL 10, dont elle est d'ailleurs très voisine et qui est habituellement prise comme référence pour l'évaluation de l'activité thérapeutique de composés à effet antitumoral (voir H.E. Skipper et coll., ouvrages cités).

leucémie L 1210 = test: Antitumour effect in DBA/2 mice inoculated i.p. with 10^5 L1210 leukaemia cells, single i.p. injection 24 h later; type: in vivo, souris; conditions: for propriétés antitumorales: change on hydroxylation at position 10 of the named parent; for effet thérapeutique antitumoral: change on quaternisation; for propriétés antitumorales chez l'animal (facteur d'accroissement): fold increase on methoxylation at position 10 of the named parent
Excerpt: as §1
Conformément à la convention en usage dans ce domaine, on considérait comme guéris les animaux qui survivaient plus de 45 jours après l'inoculation de cellules tumorales.
On a calculé le taux de survie à partir d'une analyse statistique des résultats expérimentaux, par comparaison avec les résultats obtenus avec la série témoin, selon les méthodes bien connues de Mann-Whitey et de Wilcoxon; le pourcentage de cellules leucémiques tuées par le traitement réalisé était calculé par la méthode décrite par H.E.Skipper et coll. dans les articles cités plus haut, en prenant pour base, suivant le cas, soit l'augmentation de la survie moyenne en l'absence de survivants soit le pourcentage de survivants.
[…] Après 24 heures, on a fait à une moitié de ces souris une injection unique par voie intrapéritonéale d'une dose variable du composé respectif à tester (éventuellement mis au préalable sous la forme de l'un de ses sels hydrosolubles, si nécessaire), tandis qu'on injectait par la même voie à l'autre moitié des souris un même volume de solvant; cette dernière moitié du groupe de souris servait donc de série témoin. On a réparti les souris au hasard dans chaque série expérimentale.

cellules L1210 = test: In vitro growth inhibition of L1210 cells (48 h culture); conditions: for IC50: read-out: DI50 (Dose qui réduit de 50 % la croissance des cellules L1210); for diminution de la cytotoxicité (facteur): fold decrease on quaternisation, versus the non-quaternised base
[2] = dose 0,01 of DL0, controls 9,3 ± 0,5 days, 15 mice
[3] = dose 0,1 of DL0, controls 9,3 ± 0,5 days, 15 mice
[4] = dose 0,01 of DL0, controls 9,7 ± 0,9 days, 10 mice
[5] = dose 0,05 of DL0, controls 9,3 ± 0,5 days, 15 mice
[6] = dose 0,5 of DL0, controls 9,3 ± 0,5 days, 15 mice
[7] = dose 0,5 of DL0, controls 9,7 ± 0,9 days, 10 mice
[8] = dose 0,8 of DL0, single i.p., ILS = T/C x 100
[9] = dose 1 of DL0, controls 9,3 ± 0,5 days, 15 mice
[10] = dose 0,005 of DL0, controls 9,3 ± 0,5 days, 15 mice
[11] = dose 0,1 of DL0, controls 9,2 days, 15 mice
[12] = dose 0,02 of DL0, controls 9,7 ± 0,9 days, 10 mice
[13] = dose 0,02 of DL0, controls 9,2 days, 15 mice
[14] = dose 0,5 of DL0, controls 9,2 days, 15 mice
[15] = dose 1 of DL0, controls 9,7 ± 0,9 days, 10 mice
[16] = dose 1 of DL0, controls 9,2 days, 15 mice
[17] = versus the non-quaternised base

CCN(CC)CC[n+]1ccc2c(C)c3[nH]c4ccc(O)cc4c3cc2c1C [4-β-diéthylaminoéthyl 10-OH olivacinium (acétate)]
DL0 (i.p.) [1]: 4-β -diéthyl-aminoéthyl 10-hydroxy olivacinium (acétate) DL0 (i.p.) = 100 mg
DL0 (Dose maximale jamais mortelle) [1]: 125 mg/kg
% de cellules tumorales tuées (leucémie L 1210; [2]): 99%
ILS (leucémie L 1210; [2]): 128%
survie moyenne en jours des souris traitées (leucémie L 1210; [2]): 11,9 ± 1,1 jours
survivants (leucémie L 1210; [2]): 0/15
% de cellules tumorales tuées (leucémie L 1210; [3]): 99,997%
ILS (leucémie L 1210; [3]): 162%
survie moyenne en jours des souris traitées (leucémie L 1210; [3]): 15,1 ± 1,4 jours
survivants (leucémie L 1210; [3]): 0/15
% de cellules tumorales tuées (leucémie L 1210; [4]): 97%
ILS (leucémie L 1210; [4]): 120%
survie moyenne en jours des souris traitées (leucémie L 1210; [4]): 11,6 ± 1,1 jours
survivants (leucémie L 1210; [4]): 0/10
% de cellules tumorales tuées (leucémie L 1210; [5]): 99,8%
ILS (leucémie L 1210; [5]): 136%
survie moyenne en jours des souris traitées (leucémie L 1210; [5]): 12,7 ± 0,4 jours
survivants (leucémie L 1210; [5]): 1/15
% de cellules tumorales tuées (leucémie L 1210; [6]): ≃99,999%
ILS (leucémie L 1210; [6]): 240%
survie moyenne en jours des souris traitées (leucémie L 1210; [6]): 22,3 ± 4,4 jours
survivants (leucémie L 1210; [6]): 1/15
% de cellules tumorales tuées (leucémie L 1210; [7]): 99,98%
ILS (leucémie L 1210; [7]): 150%
survie moyenne en jours des souris traitées (leucémie L 1210; [7]): 14,5 ± 2 jours
survivants (leucémie L 1210; [7]): 0/10
ILS (leucémie L 1210; [8]): 182%
survivants sur 15 (leucémie L 1210; dose 0,8 of DL0, single i.p., out of 15 mice): 4
% de cellules tumorales tuées (leucémie L 1210; [9]): ≃99,999%
ILS (leucémie L 1210; [9]): 182%
survie moyenne en jours des souris traitées (leucémie L 1210; [9]): 16,9 ± 3,7 jours
survivants (leucémie L 1210; [9]): 4/15
% de cellules tumorales tuées (leucémie L 1210; [10]): 99%
ILS (leucémie L 1210; [10]): 127%
survie moyenne en jours des souris traitées (leucémie L 1210; [10]): 11,8 ± 0,8 jours
survivants (leucémie L 1210; [10]): 0/15
IC50 (cellules L1210; Mus musculus, L1210, 48 h): 236 nM

Cc1nccc2c(C)c3[nH]c4ccc(O)cc4c3cc12 [10-hydroxy olivacine (acétate)]
DL0 (i.p.) [1]: 10-hydroxy olivacine (acétate) DL0(i.p.) = 50 mg
ILS (leucémie L 1210; [11]): non significatif
survie moyenne en jours des souris traitées (leucémie L 1210; [11]): 10,9 jours
survivants (leucémie L 1210; [11]): 0/15
ILS (leucémie L 1210; [12]): non significatif
survie moyenne en jours des souris traitées (leucémie L 1210; [12]): 10,5 ± 0,8 jours
survivants (leucémie L 1210; [12]): 0/10
ILS (leucémie L 1210; [13]): non significatif
survie moyenne en jours des souris traitées (leucémie L 1210; [13]): 9,6 jours
survivants (leucémie L 1210; [13]): 0/15
ILS (leucémie L 1210; [14]): non significatif
survie moyenne en jours des souris traitées (leucémie L 1210; [14]): 12,1 jours
survivants (leucémie L 1210; [14]): 0/15
% de cellules tumorales tuées (leucémie L 1210; [15]): 98,98%
ILS (leucémie L 1210; [15]): 148%
survie moyenne en jours des souris traitées (leucémie L 1210; [15]): 14,4 ± 1,3 jours
survivants (leucémie L 1210; [15]): 2/10
ILS (leucémie L 1210; [16]): non significatif
survie moyenne en jours des souris traitées (leucémie L 1210; [16]): 11,8 jours
survivants (leucémie L 1210; [16]): 0/15

Cc1nccc2c(C)c3[nH]c4ccc(O)cc4c3cc12 [10-hydroxy olivacine]
DL0 (Dose maximale jamais mortelle) [1]: 50 mg/kg
ILS (leucémie L 1210; [8]): 139%
IC50 (cellules L1210; Mus musculus, L1210, 48 h): 20 nM

COc1ccc2[nH]c3c(C)c4ccnc(C)c4cc3c2c1 [10-méthoxy olivacine, reference compound]
DL0 (Dose maximale jamais mortelle) [1]: 150 mg/kg
ILS (leucémie L 1210; dose 0,66 of DL0, single i.p., ILS = T/C x 100): 147%
IC50 (cellules L1210; Mus musculus, L1210, 48 h): 1090 nM

Cc1nccc2c(C)c3[nH]c4ccccc4c3cc12 [olivacine]
toxicités générales (facteur d'augmentation) [1]: 5
propriétés antitumorales (leucémie L 1210): ne modifie que peu
effet thérapeutique antitumoral (leucémie L 1210): disparition de l'effet thérapeutique antitumoral
propriétés antitumorales chez l'animal (facteur d'accroissement) (leucémie L 1210): 1,3

Acétate de 4-méthyl 10-hydroxy olivacinium
diminution de la toxicité (facteur) ([1]; fold decrease on quaternisation, versus the non-quaternised base): 2
DL0 (Dose maximale jamais mortelle) [1]: 100 mg/kg
effet thérapeutique antitumoral (leucémie L 1210): n'est pas modifiée
ILS (leucémie L 1210; dose 1 of DL0, single i.p., ILS = T/C x 100): 155%
diminution de la cytotoxicité (facteur) (cellules L1210): 28,1
diminution de la cytotoxicité (facteur) (cellules L1210; listed as 10-hydroxy olivacine quaternarisée): ~30
IC50 (cellules L1210; L1210 cells, versus controls, after 48 h of culture): 562 nM

Acétate de 4-méthyl 10-méthoxy olivacinium
augmentation de la toxicité (facteur) [1, 17]: 1,5
diminution de la cytotoxicité (facteur) (cellules L1210): 1,3

Acétate de 4-méthyl olivacinium
toxicités générales (facteur d'augmentation) [1]: ne varient pas
augmentation de la toxicité (facteur) [1, 17]: 3,3
propriétés antitumorales (leucémie L 1210): fait par contre apparaître des propriétés antitumorales
propriétés antitumorales chez l'animal (facteur d'accroissement) (leucémie L 1210): 1,7
diminution de la cytotoxicité (facteur) (cellules L1210): 1,4
augmentation de la cytotoxicité (facteur) (cellules L1210; fold increase on hydroxylation at position 10 of the named parent): 4
